In PubChem BioAssay AID1645865 (Buhrlage Lab, Dana-Farber Cancer Institute and Novartis …, 2021) one finds IC50 data, which are given here for 64 compounds.

This assay deals with Ubiquitin carboxyl-terminal hydrolase 30 (Homo sapiens) (UniProt Q70CQ3). Description: ubiquitin-specific protease 30 DUB inhibitors, concentration-effect, biochemical, validation of primary actives (AID 1645865). The settings on record: purified USP30, Ub-rhodamine cleavage, fluorescence, 2 h.

The structures appear in SMILES notation. The source made the active and inactive calls.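 The calls were made as follows: active = maximal inhibition of the USP30 enzyme reaching 30% or more across the dose series; inactive = the rest.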 Some results are limits rather than exact numbers.

Chain of Ubiquitin carboxyl-terminal hydrolase 30 (Homo sapiens) (Q70CQ3 whole entry, looked up): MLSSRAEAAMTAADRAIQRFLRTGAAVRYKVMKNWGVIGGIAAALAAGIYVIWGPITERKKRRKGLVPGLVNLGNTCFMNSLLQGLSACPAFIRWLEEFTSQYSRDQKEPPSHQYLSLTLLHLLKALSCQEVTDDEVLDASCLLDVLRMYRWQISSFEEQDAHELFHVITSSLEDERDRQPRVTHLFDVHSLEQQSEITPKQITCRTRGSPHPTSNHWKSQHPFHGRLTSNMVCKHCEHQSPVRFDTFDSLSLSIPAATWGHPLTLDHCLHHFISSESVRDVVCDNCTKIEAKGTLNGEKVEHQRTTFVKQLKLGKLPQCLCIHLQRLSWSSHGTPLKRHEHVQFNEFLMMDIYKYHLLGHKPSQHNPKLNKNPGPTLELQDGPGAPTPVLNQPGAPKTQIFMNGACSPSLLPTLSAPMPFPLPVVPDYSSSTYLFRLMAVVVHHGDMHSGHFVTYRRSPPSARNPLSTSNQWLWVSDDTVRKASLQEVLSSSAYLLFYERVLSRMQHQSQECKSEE

The term IC50 denotes the concentration at which inhibition is half-maximal. As to `CCOC(=O)N1CCN(S(=O)(=O)c2ccc(C(=O)Nc3ccc(Br)cc3)cc2)CC1`, the IC50 is 1.65 µM. For `COc1ccc(C)cc1NC(=O)CSc1nc(C)nc2c1oc1ccccc12`, the 50% inhibitory concentration (IC50) was 17.9 µM. The same measure for `Nc1ccccc1SCc1noc(-c2cccs2)n1`: > 50 µM (inactive). Consider `COc1ccc(NC(=O)c2nc3n(n2)-c2ccccc2S(=O)(=O)N3)cn1`, for which the IC50 was > 50 µM (inactive). The same measure for `Cc1c(CC(=O)N2CCN(c3ncccn3)CC2)c(=O)oc2cc(O)ccc12`: 26.3 µM. The same measure for `COc1cc(C2SCC(=O)Nc3c2c(-c2ccccc2)nn3-c2ccccc2)cc(OC)c1OC` (centres undefined): > 50 µM (inactive); for `COc1ccc(-c2nc3n(n2)C(c2cccc(O)c2)C2=C(CCCC2=O)N3)cc1` (centres undefined): 38.2 µM; for `CCc1cccc2c(C(=O)COc3ccc(C#N)cc3)c[nH]c12`: 11.3 µM. In the case of `COc1cccc(NC(=O)c2ccc(F)cc2Cl)c1`, the IC50 was > 50 µM (inactive). In the case of `CCc1ccc(NC(=O)COc2cccc(-n3cnnn3)c2)cc1`, the IC50 is 26.6 µM. Turning to `COc1ccc(-c2cnnn2-c2ccc(NC(=O)c3c(F)cccc3F)cc2)cc1OC`, the IC50 is > 50 µM (inactive). For `O=C(Cn1cncc(C(=O)NC2CCCC2)c1=O)Nc1cccc(F)c1`, the IC50 is 19.3 µM.

Consider `COc1cccc(-c2cc(=O)[nH]c(Nc3nc(C)c4ccccc4n3)n2)c1`, for which the IC50 is 35.4 µM. In the case of `COc1ccc(-c2nc(CNC(=O)COc3ccc(C)cc3)cs2)cc1`, the IC50 was 36.3 µM. The same measure for `COCCn1ccc2nc(C)c(C(=O)Nc3ccc4c(c3)OCCO4)cc2c1=O`: 45.2 µM; for `CCOc1ccc(NC(=O)COc2cccc3c2CCN(CC)C3=O)cc1`: > 50 µM (inactive). Then `O=C(COc1ccccc1-c1nnc(-c2ccccc2)o1)Nc1ccc(F)cc1F`, with 2.16 µM; and `COc1cccc(N2CCN(C(=O)Nc3ccc4c(c3)NC(=O)CO4)CC2)c1`, with 21.8 µM; and `COc1ccc2nc(Nc3ncc4c(n3)CCCC4=O)nc(C)c2c1`, with > 50 µM (inactive). The same measure for `Cc1ccccc1NC(=O)Cn1c(N2CCOCC2)nc2cc(C)n(C)c2c1=O`: 17.9 µM; for `COc1ccccc1CNC(=O)C1CCCN(c2nc3ccsc3c(=O)s2)C1` (centres undefined): 3.45 µM. For `Cc1ccc(CNC(=O)Cn2cnc3c(cnn3-c3cccc(Cl)c3)c2=O)cc1`, the IC50 was 1.15 µM. Consider `Cc1ccccc1-c1nc(CN(C)S(=O)(=O)c2ccccc2)c(C)o1`, for which the IC50 was 35.8 µM. Then `c1cnc(-c2n[nH]c(C3CCN(C4CCNC4)CC3)n2)cn1` (centres undefined), with > 50 µM (inactive).

On to `Cc1cn[nH]c1C1COCCN1C(=O)c1ccc2ncccc2c1` (centres undefined), for which the IC50 was > 50 µM (inactive). The same measure for `Cc1cc(C)c2cc(CN(CCc3ccccc3)C(=O)Nc3ccccc3)c(=O)[nH]c2c1`: > 50 µM (inactive); for `COc1cccc(OCCCn2c(C(C)NC(=O)c3ccco3)nc3ccccc32)c1` (centres undefined): 34.8 µM. Regarding `Cc1ccc(C(=O)Nc2ccc3nccnc3c2)cc1`, the IC50 is 34.3 µM. Regarding `CCOC(=O)c1cc2c(ccn2C)n1CC(=O)N1CCc2ccccc2C1`, the IC50 is > 50 µM (inactive). The same measure for `CC(Sc1n[nH]c2nc3ccccc3n12)C(=O)Nc1ccc2c(c1)OCCO2` (centres undefined): > 50 µM (inactive); for `Fc1ccccc1N1CCN(c2ncc3c(n2)CCN(Cc2ccccn2)C3)CC1`: > 50 µM (inactive). The same measure for `Cc1ccc(C(=O)Nc2cc3c4c(c2)CC(=O)N4CCC3)cc1`: > 50 µM (inactive). As for `Cc1cc(C)c(NC(=O)Cn2c(=O)n(CCC(=O)NCc3ccc4c(c3)OCO4)c(=O)c3sccc32)c(C)c1`, the concentration for half-maximal inhibition (IC50) is 1.98 µM. Then `COc1ccc(CCNC(=O)[C@H](CCSC)NC(=O)N2CCn3c2nc2ccccc23)cc1OC`, with 44 µM. The same measure for `CC(=O)N1CCOc2cc(S(=O)(=O)N3CCCC3c3cc(C)no3)ccc21` (centres undefined): > 50 µM (inactive); for `COCCNC(=O)c1ccn(-c2ccc3ccc(-c4cnn(C)c4)cn23)n1`: > 50 µM (inactive); for `COc1ccc(/C=C/C(=O)Nc2c3c(nc4c2CCC4)CCCC3)cc1`: 18.5 µM. Then `COc1cccc(NC(=O)c2ccc(-c3csc(C)n3)cc2)c1`, with > 50 µM (inactive); and `Cc1ccn(-c2ccc(NC(=O)C3CCCCC3)cc2)n1`, with 17.2 µM; and `O=C(COc1ccc(S(=O)(=O)N2CCOCC2)cc1)N1CCC(Cc2ccccc2)CC1`, with 49.5 µM. In the case of `Cc1ccc2c(c1)N(C)C(=O)c1cc(NC(=O)c3ccc(F)cc3)ccc1O2`, the IC50 is 2.71 µM. The same measure for `Fc1ccc(Oc2nc(CN3CCOCC3)nc3sc4c(c23)CCCC4)c(Cl)c1`: > 50 µM (inactive); for `O=C(CN1C(=O)C2CCCC2=Nc2ccccc21)Nc1ccc(F)cc1F` (centres undefined): 36.4 µM. Then `CCn1cnc2c1c(=O)n(CC(=O)NCc1ccccc1Cl)c(=O)n2Cc1ccccc1`, with > 50 µM (inactive); and `COc1ncccc1CN1CCn2c(Cn3cncn3)cnc2C1C` (centres undefined), with > 50 µM (inactive). Then `COC(=O)c1cc(C)sc1NC(=O)c1cccc(OC)c1OC`, with > 50 µM (inactive); and `Cc1cc(O)cc2cc3c(c(O)c12)C(=O)CCC3O` (centres undefined), with > 50 µM (inactive). As for `CO[C@H]1[C@@H](O)[C@H](C)O[C@H](O[C@H]2[C@H](Oc3cccc4c(O)c5c(=O)oc6ccc(C)c7c(=O)oc(c34)c5c67)O[C@H](C)[C@H](O)[C@@H]2O)[C@@H]1O`, the IC50 is > 50 µM (inactive).

Turning to `Cc1cc(/C=C2/C(=N)N3C(c4ccccc4)=CSC3=NC2=O)c(C)n1-c1ccc(F)cc1`, the IC50 was > 50 µM (inactive). Then `Cc1ccc(-n2nc(C(=O)Nc3ccc(C)cn3)c3ncn(C)c(=O)c32)cc1`, with 1.82 µM; and `COc1cc2c(cc1OC)-c1cc(Nc3ccc(Br)cc3)nc(=O)n1CC2`, with 0.939 µM; and `CC(C)N1CC[C@@H]2[C@H](C1)CN2C(=O)Nc1cccc(F)c1`, with > 50 µM (inactive).

`COc1ccc(NC(=O)COc2cc(CSc3ccccc3)ncc2OC)cc1`: the IC50 is 25.7 µM. On to `O=C(NCc1ccc(CN2CCCC2)cc1)c1cc2ccccc2[nH]c1=O`, for which the IC50 was > 50 µM (inactive).

Consider `Cc1cccc(OCCn2c(CCNC(=O)C3CCCCC3)nc3ccccc32)c1`, for which the IC50 was 20.2 µM. The same measure for `Cc1cc(C(=O)Nc2ccc3c(c2)OCCO3)no1`: > 50 µM (inactive).

As to `c1coc(CNc2nc(Nc3cccc4ccccc34)nc3ccccc23)c1`, the IC50 was > 50 µM (inactive).

Turning to `COc1ccc(OC)c(-c2cn3ccn(-c4ccc5c(c4)CCC5)c(=O)c3n2)c1`, the IC50 was > 50 µM (inactive). On to `COCCCn1c(SCC(=O)Nc2ccccc2C(=O)OC)nc2ccccc2c1=O`, for which the IC50 is 25.7 µM. Then `CCOc1ccc(NC(=O)c2nc3c(=O)[nH]c4cc(C)ccc4n3n2)cc1`, with > 50 µM (inactive); and `Cc1ccc(S(=O)(=O)N(C)C)cc1NC(=O)Cc1ccc(Cl)c(Cl)c1`, with > 50 µM (inactive). The same measure for `O=C(COC(=O)c1cc(Cl)ccc1O)Nc1ccc2c(c1)OCCO2`: 16.3 µM. `CCn1cc(NC(=O)CN2CCC3(CC=CCOC3)CC2)c(C)n1`: the IC50 is > 50 µM (inactive). Turning to `FC(F)(F)c1ccccc1CCN1CCc2nc3ncc(Cl)cc3cc2C1`, the IC50 is > 50 µM (inactive).
